PMC8705818, “Experimental Characterization of the Interaction between the N-Terminal SH3 Domain of Crkl and C3G” (International Journal of Molecular Sciences, 2021)
Peptide text beside a SMILES is read from it. * marks the point of attachment. Dansyl = CN(C)c1cccc2c(S(=O)(=O)*)cccc12

What was measured:
N-SH3 D138A (Crkl) [1] = biological target: T1, N-SH3 D138A (Crkl) (Homo sapiens, UniProt P46109, D138A); assay: Stopped-flow displacement, N-SH3 D138A:dansylated C3G277–296 complex; type: binding; conditions: pH 7.5, D138A, 50 mM Hepes pH 7.5, 10 °C
T1 construct: The construct encoding the N-SH3 domain of Crkl was subcloned in a pET28b+ plasmid vector; His-tag; made in house; host or cells: E. coli BL21
Description: (§1) We rapidly mixed a constant concentration of C3G277–296 peptide (0.5 µM) versus increasing concentrations of N-SH3 (ranging from 0.5 to 5 µM) and the observed rate constants (kobs) obtained at different ionic strength conditions (buffer Hepes 50 mM, pH 7.0, 0.15 M, 0.3 M, 0.5 M and 1 M NaCl) were plotted as function of concentration of N-SH3 and fitted with a linear equation (Figure 1). By following previously derived equations [19, 20], the dependence of kobs as function of [N-SH3] was fitted with Equation (1), taking into account the non-pseudo-first order conditions, allowing us to calculate the microscopic association rate constant (kon), the microscopic dissociation rate constant (koff) of the binding reaction and the equilibrium dissociation rate constant KD, such as koff/kon. To increase the reliability of the calculated KD, we resorted to directly obtaining a koff value through displacement experiments (Table 1), in which a preincubated complex of N-SH3 domain and dansylated C3G277–296 peptide (at the concentration of 0.5 and 2 µM, respectively) were rapidly mixed versus a high excess of nondansylated peptide (ranging from 20 to 40 µM). In agreement with the theory in [21], the observed rate constants were insensitive to displacer concentration. In all binding and displacement experiments conducted, traces were satisfactorily fitted with a single-exponential equation. (1) kobs=(kon^2∗(2−[NSH3])^2+koff^2+2konkoff(2+[NSH3]))^1/2
(§2) Kinetic binding experiments were performed on a single-mixing SX-18 stopped-flow instrument (Applied Photophysics), by mixing a constant concentration (0.5 μM) of C3G dansylated versus increasing concentrations of N-SH3 at 10 °C. Ionic strength dependence of wt N-SH3 was performed with concentrations ranging from 1 to 5 µM for 0 M NaCl condition and from 0.5 to 5 µM for 0.15 M, 0.3 M, 0.5 M and 1 M NaCl, buffer Hepes 50 mM pH 7.0. The excitation wavelength was 280 nm, and fluorescence was collected using a 455 nm cut-off filter. At least, five independent acquisitions were collected and averaged for each experiment. The resulting averages were all satisfactorily fitted with a single-exponential equation. Buffers used for pH dependence were: 50 mM Sodium Acetate pH 5.0, 50 mM Sodium Acetate, pH 5.5, Bis–Tris 50 mM pH 6.0, Bis–Tris 50 mM pH 6.5, Hepes 50 mM pH 7.0, Hepes 50 mM pH 7.5, Tris–HCl 50 mM pH 8.0, Tris–HCl 50 mM pH 8.5, Tris–HCl 50 mM pH 9.0, all with added 0.5 M NaCl. Concentrations of N-SH3 used for each experiment were: 4.0–8.0 µM at pH 5.0, 2.0–7.0 µM at pH 5.5, 1.0–5.0 µM at pH 6.0, 0.5–5.0 µM at pH 6.5, 1.5–6.0 µM at pH 7.0, 0.5–5.0 µM at pH 7.5, 1.5–6.0 µM at pH 8.0, 1.5–6.0 µM pH 8.5, 1.5–6.0 µM at pH 9.0. […]

N-SH3 D138A (Crkl) [2] = biological target: T1, N-SH3 D138A (Crkl); assay: Stopped-flow kinetic binding, N-SH3 D138A versus C3G277–296; conditions: pH 7.5, D138A, 50 mM Hepes pH 7.5, 10 °C
Description: as §1
Then, we employed D138A, E140A and D141A variants in kinetic binding experiments with C3G, and we explored the effect of increasing ionic strength on the binding reaction of these variants.
as §2, with “NaCl.” for “NaCl. Concentrations of N-SH3 used for each experiment were: 4.0–8.0 µM at pH 5.0, 2.0–7.0 µM at pH 5.5, 1.0–5.0 µM at pH 6.0, 0.5–5.0 µM at pH 6.5, 1.5–6.0 µM at pH 7.0, 0.5–5.0 µM at pH 7.5, 1.5–6.0 µM at pH 8.0, 1.5–6.0 µM pH 8.5, 1.5–6.0 µM at pH 9.0.”

[3] = biological target: T2, N-SH3 domain of Crkl (WT) (Homo sapiens, UniProt P46109); assay: Stopped-flow displacement, N-SH3 WT:dansylated C3G277–296 complex versus nondansylated peptide; type: binding; conditions: 10 °C
T2 construct: The construct encoding the N-SH3 domain of Crkl was subcloned in a pET28b+ plasmid vector; His-tag; made in house; host or cells: E. coli BL21
Description: as §1
Kinetic binding experiments were performed on a single-mixing SX-18 stopped-flow instrument (Applied Photophysics), by mixing a constant concentration (0.5 μM) of C3G dansylated versus increasing concentrations of N-SH3 at 10 °C. Ionic strength dependence of wt N-SH3 was performed with concentrations ranging from 1 to 5 µM for 0 M NaCl condition and from 0.5 to 5 µM for 0.15 M, 0.3 M, 0.5 M and 1 M NaCl, buffer Hepes 50 mM pH 7.0. The excitation wavelength was 280 nm, and fluorescence was collected using a 455 nm cut-off filter. At least, five independent acquisitions were collected and averaged for each experiment. The resulting averages were all satisfactorily fitted with a single-exponential equation. Buffers used for pH dependence were: 50 mM Sodium Acetate pH 5.0, 50 mM Sodium Acetate, pH 5.5, Bis–Tris 50 mM pH 6.0, Bis–Tris 50 mM pH 6.5, Hepes 50 mM pH 7.0, Hepes 50 mM pH 7.5, Tris–HCl 50 mM pH 8.0, Tris–HCl 50 mM pH 8.5, Tris–HCl 50 mM pH 9.0, all with added 0.5 M NaCl. Concentrations of N-SH3 used for each experiment were: 4.0–8.0 µM at pH 5.0, 2.0–7.0 µM at pH 5.5, 1.0–5.0 µM at pH 6.0, 0.5–5.0 µM at pH 6.5, 1.5–6.0 µM at pH 7.0, 0.5–5.0 µM at pH 7.5, 1.5–6.0 µM at pH 8.0, 1.5–6.0 µM pH 8.5, 1.5–6.0 µM at pH 9.0. For the ionic strength dependence of D138A and E140A variants buffer used were 0.05 M NaCl, 0.1 M NaCl, 0.15 M NaCl, in 50 mM Hepes pH 7.5. Concentrations of N-SH3 D138A used for each experiment were: 2.0–4.5 µM at 0 M NaCl, 2.5–6.0 µM at 0.05 M, 0.1 M, 0.15 M NaCl. Concentrations of N-SH3 E140A used for each experiment were: 2.0–4.5 µM at 0 M NaCl, 3.0–5.5 µM at 0.05 M NaCl, 3.0–5.0 µM at 0.1 M NaCl, 3.0–5.5 µM at 0.15 M NaCl. Displacement kinetic experiments were performed by mixing a preincubated complex of N-SH3 (in all its variants) and dansylated C3G versus a high excess of nondansylated C3G (see text for details). Experiments were performed in the same buffer conditions as the binding experiments, except for D141A variant, for which 20% w/v sucrose was added to the buffer Hepes 50 mM pH 7.0. Displacement traces were fitted with a single-exponential equation.

N-SH3 E140A (Crkl) = biological target: T3, N-SH3 E140A (Crkl) (Homo sapiens, UniProt P46109, E140A); assay: Stopped-flow displacement, N-SH3 E140A:dansylated C3G277–296 complex; type: binding; conditions: pH 7.5, E140A, 50 mM Hepes pH 7.5, 10 °C
T3 construct: The construct encoding the N-SH3 domain of Crkl was subcloned in a pET28b+ plasmid vector; His-tag; made in house; host or cells: E. coli BL21
Description: as §1, §2

T2 sequence (P46109 123-183 limits assumed): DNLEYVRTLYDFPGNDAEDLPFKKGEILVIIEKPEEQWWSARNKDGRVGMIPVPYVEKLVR
T1 sequence (P46109 123-183 D138A limits assumed): as the sequence (P46109 123-183 limits assumed) above, with D16A counted along it
T3 sequence (P46109 123-183 E140A limits assumed): as the sequence (P46109 123-183 limits assumed) above, with E18A counted along it

koff (N-SH3 D138A (Crkl) [1]; 0 M NaCl): 139 ± 1 s⁻¹ | koff (N-SH3 D138A (Crkl) [1]; 0.05 M NaCl): 212 ± 2 s⁻¹ | koff (N-SH3 D138A (Crkl) [1]; 0.10 M NaCl): 183 ± 2 s⁻¹ | koff (N-SH3 D138A (Crkl) [1]; 0.15 M NaCl): 254 ± 2 s⁻¹ | kon (N-SH3 D138A (Crkl) [2]; 0 M NaCl, 0.5 µM dansylated peptide vs 2.0–4.5 µM N-SH3 D138A): 1.58e+08 ± 1.2e+07 M⁻¹ s⁻¹ | kon (N-SH3 D138A (Crkl) [2]; 0.05 M NaCl, 0.5 µM dansylated peptide vs 2.5–6.0 µM N-SH3 D138A): 8.1e+07 ± 8e+06 M⁻¹ s⁻¹ | kon (N-SH3 D138A (Crkl) [2]; 0.10 M NaCl, 0.5 µM dansylated peptide vs 2.5–6.0 µM N-SH3 D138A): 4.8e+07 ± 8e+06 M⁻¹ s⁻¹ | kon (N-SH3 D138A (Crkl) [2]; 0.15 M NaCl, 0.5 µM dansylated peptide vs 2.5–6.0 µM N-SH3 D138A): 1.2e+07 ± 5e+06 M⁻¹ s⁻¹ | koff ([3]; pH 5, pH 5.0 (50 mM Sodium Acetate), 0.5 M NaCl, displacement): 257 ± 10 s⁻¹ | koff ([3]; pH 5.5, pH 5.5 (50 mM Sodium Acetate), 0.5 M NaCl, displacement): 81 ± 3 s⁻¹ | koff ([3]; pH 6, pH 6.0 (Bis–Tris 50 mM), 0.5 M NaCl, displacement): 78 ± 3 s⁻¹ | koff ([3]; pH 6.5, pH 6.5 (Bis–Tris 50 mM), 0.5 M NaCl, displacement): 65 ± 2 s⁻¹ | koff ([3]; pH 7, 0 M NaCl, Hepes 50 mM pH 7.0, displacement by 20–40 µM nondansylated peptide): 12 ± 1 s⁻¹ | koff ([3]; pH 7, 0.15 M NaCl, Hepes 50 mM pH 7.0, displacement): 23 ± 1 s⁻¹ | koff ([3]; pH 7, 0.3 M NaCl, Hepes 50 mM pH 7.0, displacement): 32 ± 2 s⁻¹ | koff ([3]; pH 7, 0.5 M NaCl (ionic strength series), Hepes 50 mM pH 7.0, displacement): 34 ± 1 s⁻¹ | koff ([3]; pH 7, 1.0 M NaCl, Hepes 50 mM pH 7.0, displacement): 51 ± 2 s⁻¹ | koff ([3]; pH 7, pH 7.0 (Hepes 50 mM), 0.5 M NaCl (pH series), displacement): 42 ± 2 s⁻¹ | koff ([3]; pH 7.5, pH 7.5 (Hepes 50 mM), 0.5 M NaCl, displacement): 34 ± 2 s⁻¹ | koff ([3]; pH 8, pH 8.0 (Tris–HCl 50 mM), 0.5 M NaCl, displacement): 46 ± 3 s⁻¹ | koff ([3]; pH 8.5, pH 8.5 (Tris–HCl 50 mM), 0.5 M NaCl, displacement): 40 ± 3 s⁻¹ | koff ([3]; pH 9, pH 9.0 (Tris–HCl 50 mM), 0.5 M NaCl, displacement): 39 ± 2 s⁻¹ | koff (N-SH3 E140A (Crkl); 0 M NaCl): 254 ± 3 s⁻¹ | koff (N-SH3 E140A (Crkl); 0.05 M NaCl): 330 ± 3 s⁻¹ | koff (N-SH3 E140A (Crkl); 0.10 M NaCl): 302 ± 2 s⁻¹ | koff (N-SH3 E140A (Crkl); 0.15 M NaCl): 339 ± 2 s⁻¹
Structure (SMILES): CC(C)C[C@H](NC(=O)[C@H](C)NC(=O)[C@@H]1CCCN1C(=O)[C@@H]1CCCN1C(=O)[C@@H]1CCCN1C(=O)[C@H](CO)NC(=O)[C@H](CC(N)=O)NC(=O)[C@H](CC(=O)O)NC(=O)[C@@H](NC(=O)[C@@H](NS(=O)(=O)c1cccc2c(N(C)C)cccc12)C(C)C)C(C)C)C(=O)N1CCC[C@H]1C(=O)N1CCC[C@H]1C(=O)N[C@@H](CCCCN)C(=O)N[C@@H](CCCCN)C(=O)N[C@@H](CCCNC(=N)N)C(=O)N[C@@H](CCC(N)=O)C(=O)N[C@@H](CO)C(=O)N[C@@H](C)C(=O)N1CCC[C@H]1C(=O)N[C@@H](CO)C(=O)O [C3G277–296] (Dansyl-VVDNSPPPALPPKKRQSAPS-OH)
